According to article PMC6099102, “Effect of the Nature of Donor Atoms on the Thermodynamic, Kinetic and Relaxation Properties of Mn(II) Complexes Formed With Some Trisubstituted 12-Membered Macrocyclic Ligands” (Frontiers in Chemistry, 2018):

Test: Longitudinal water proton relaxivity (r1p) of the Mn(II) complexes
Assay type: physicochemical
Settings: 0.5 T field strength, 25 °C and pH = 7.4
Method: The relaxometric data were collected using a Bruker Minispec MQ20 NMR relaxometer. […] A datapoint plotted on figures represents an average of 5–6 T1 measurements (Figures S3–S9 in Supplementary Material). The data were fitted by using the molar r1p relaxivity value of the MnCl2 ([…] at 0.49 T and 25 °C). The equilibrium constants were calculated using the PSEQUAD program (Zékány and Nagypál, [1985]).
The longitudinal water proton relaxation rates (r1 = 1/T1-1/Tw) were measured at 20 MHz with a Bruker Minispec MQ-20 relaxometer (Bruker Biospin, Germany). Samples were thermostated by using a circulating water bath at 25.0 ± 0.2 °C. The longitudinal relaxation times (T1) were measured by the inversion-recovery method (180° − τ − 90°), averaging 5–6 data points collected for each concentration point obtained from 14 different τ values (τ values ranging between 0 to at least 6 times the expected T1). The relaxivity of the complexes was determined by titrating a nearly 1.0 mM ligand solution with a Mn(II) stock solution at pH = 7.22–7.43 (50 mM HEPES buffer, I = 0.15 M NaCl, 25 °C). Under these conditions, the only Mn(II) ion containing species present in solution is the [Mn(L)], which was supported by the r1 vs. pH profiles. The relaxivity of the complex was determined as the slope of the strait line obtained by plotting 1/T1p values as a function of Mn(II) concentration for samples with [Ligand] > [Mn(II)]. The relaxivity of [Mn(DOTP)]^6− and [Mn(DO3P)]^4− was determined in the pH range of 10.0–11.0 and 8.5–9.3, respectively where mainly the [Mn(DO3P)]^4− and [Mn(DOTP)]^6− complex exists in solution (Figures S4 and S9 in Supplementary Material).
The relaxivity (r1p, mM^−1s^−1) is defined as the longitudinal water proton relaxation rate in a solution containing 1.0 mM concentration of the paramagnetic species. It characterizes the efficiency of a paramagnetic metal chelate to enhance the solvent proton relaxation rate at a given magnetic field (usually 20 MHz) and temperature. The inner-sphere contribution to relaxivity is directly proportional to the number of metal bound water molecules (q), and therefore, relaxivity values may provide some useful information on the hydration state of paramagnetic complexes of similar molecular weights and electronic relaxation times. […] The r1p values of the Mn(II) complexes formed with heptadentate 12-membered macrocyclic ligands were determined at 0.5 T field strength and 25 °C and reported in Table 4 along with some relaxivity data published for the complexes of hexa-, hepta- and octadentate ligands. […] Below these pH ranges the phosphonate moieties undergo protonation, which further increases the relaxivity (2.60–2.90 mM^−1s^−1 values were observed near pH = 7.4, see Supplementary Material). Similar increase in the relaxivity (to 3.20 mM^−1s^−1 at 20 MHz, 37 °C) is observed for the [Mn(DOTA)]^2− complex upon its protonation and formation of the thermodynamically stable diprotonated [Mn(H2DOTA)] complex that exists as a non-hydrated chelate both in solution and in the solid state (Wang and Westmoreland, [2009]). The relaxivity of the diprotonated species at t → 0 time point was determined from the extrapolation of the relaxivity vs. time data collected after acidification of the samples containing the complexes. The X-ray crystallographic structure of [Mn(H2DOTA)] indicates the protonation of two trans carboxylate moieties (e.g., the coordination around the metal ion is similar to that observed in [Mn(trans-DO2A)] as determined by DFT calculations). Thus, the relaxivity of the diprotonated [Mn(H2DOTA)] and [Mn(H2DOTMA)] complexes is expected to be similar to that of [Mn(trans-DO2A)] (when q = 0). The value obtained by us is considerably higher, which highlights the importance of prototropic exchange as a useful tool to improve the relaxivity of the complexes (however, it has to be underlined that the protonation of the complex generally leads to a decrease in kinetic inertness).

r1p: 1.28 mM⁻¹ s⁻¹
Compound: O=C(CN1CCN(CC(=O)N2CCCCC2)Cc2cccc(n2)CN(CC(=O)N2CCCCC2)CC1)N1CCCCC1.[Mn+2] [[Mn(PC3AM^Pip)]^2+]
